What was measured:
[1] = system: pUAS-2-Fluc expression in HEK293T cells with cognate or non-cognate GAL4/VPR protein pairs; assay: Orthogonality analysis, Firefly luciferase (Fluc) luminescence; assay type: cell-based, human; settings: seven different protein pairs, 2 days, FIGS. 2A and 14
Description: Luciferase luminescence intensity measurement. Before transfection, HEK293T cells were seeded in clear bottom 96 well assay plates (Corning no. 3610) with 100 μL DMEM with 10% FBS and 1× penicillin-streptomycin at 37° C. with 5% CO2. When cells reached 50% confluency, 1.5 μL PEI Max (1 mg/mL, pH=7.1) and 100 μL DMEM were mixed with 60 ng of each plasmid (GAL4 and VPR fused target protein or E3 ubiquitin ligase, pUAS-2-Fluc) for 30 min at room temperature. Mixture was transferred into cells gently. 12 h after transfection, medium was changed, and the inductive small molecules were supplied. 2-days post induction, 120 μL of medium was aspirated from each well containing 200 μL of medium, leaving 80 μL of medium per well, then treated with 40 μL of lysis buffer (500 mM DTT (Sigma no. D0632), 10 mM coenzyme A (RPI no. C95275), 100 mM ATP (Thermo Fisher Scientific no. R1441), 80 mg/mL D-luciferin (GoldBio no. LUCNA-100), Triton lysis buffer (0.1082 M Tris-HCl, 0.0419 M Tris-Base, 75 mM NaCl, 3 mM MgCl2)). Plate was shaken with 20 seconds in “Orbital” mode with frequency of 432 rpm and Amplitude of 1 mm to lysis the cells. Recording the luminescence by plate reader Infinite M200 (TECAN) with 1000 ms integration time using Megellan v1.7 (TECAN). Mean of luciferase luminescence relative light units (RLU) was calculated by the average of three biological replications. Normalized RLU were calculated by dividing RLU of the tested group with mean of RLU of DMSO treated control group for normalization: […]

[2] = system: EYFP and BFP expression in HEK293T cells; assay: Dual PROTAC-based inducible gene cassettes (EYFP and BFP), microscopy; assay type: cell-based, human; settings: MZ1 (100 nM) and dTAG-13 (100 nM) PROTAC-CID systems, FIG. 16A
Description: Transfection and microscopy. HEK293T cells (American Type Culture Collection, no. CRL-3216) were cultured with high-glucose Dulbecco's modified Eagle's medium (DMEM) (Thermo Fisher Scientific no. 10569044) with 10% fetal bovine serum (FBS) (Thermo Fisher Scientific no. 10437028) and 1×penicillin-streptomycin (Thermo Fisher Scientific no. 15140122) at 37° C. with 5% CO2. Except for the data in FIGS. 3C, 3E, and 3H, cells were plated into 96 well plate (Corning no. 3598) and transfected by Polyethyleneimine Max (PEI Max) (Polysciences no. 24765-1). 1.5 μL PEI Max (1 mg/mL, pH=7.1) and 100 μl DMEM were mixed with plasmids to be slowly dropped into the cell medium after 30 mins of incubation. Medium was changed 12 hours post-transfection. The inductive small molecules, including Rapamycin (STEM CELL technologies no. 73362), dTAG-13 (TOCRIS no. 6605/5), dTAG^V-1 (TOCRIS no. 6744-5), dBRD9 (TOCRIS no. 6606/5), dTRIM24 (TOCRIS no. 6607/5), MZ1 (TOCRIS no. 6154/5), AT1 (TOCRIS no. 6356/5), TL13-12 (TOCRIS no. 6744/5), TL13-112 (TOCRIS no. 6745/5), dTAG-7 (TOCRIS no. 69125), ZXH3-26 (TOCRIS no. 6713/5) and ABA (GoldBio no. A-050-100), dissolved in Dimethyl sulfoxide (DMSO) (Sigma, no. D8418) were added. For the microscopy observation, the images were taken by Microscopy EVOS (Life Technologies) and processed by ImageJ (Schneider et al., 2012). If not otherwise noted, 60 ng of each plasmid were used for each sample.
The inventors next tested the feasibility of dual PROTAC-based inducible gene cassettes (FIG. 15). In the first cassette, GAL4 was fused with FKBP12^F36V, and VHL was ligated with VPR to drive EYFP expression in response to dTAG^V-1. In the second cassette, TetR was fused with BRD9BD, and CRBN was connected with VPR to drive blue fluorescence protein (BFP) expression in the presence of dBRD9. […] As biological computation relies on the protein or DNA to execute Boolean logic gate operation in living organisms for cell discrimination and disease diagnosis (3, 11, 42), the inventors next explored the possibility of PROTAC-CID enabled logic gate biological computation. By placing EYFP under control of the TRE (Tetracycline response element) and pUAS-1 promoter, the inventors observed strong EYFP expression by using one or two PROTACs, achieving clear logic OR gate responses (FIGS. 2C and 16B). To develop a more sophisticated logic AND gate, the inventors took advantage of two orthogonal site-specific DNA recombinases (Cre and Dre) for biological computation (43). […] In this gene circuit, only in the presence of both dTAG-13 and dBRD9 inducers, Dre and Cre can be expressed to remove their respective “STOP” signals, resulting in the eventual GFP expression as a clear logic AND readout (FIGS. 2D and 16C).

SMILES: CC[C@H](C(=O)N1CCCC[C@H]1C(=O)O[C@H](CCc1ccc(OC)c(OC)c1)c1ccccc1OCC(=O)NCCCCCCOc1cccc2c1C(=O)N(C1CCC(=O)NC1=O)C2=O)c1cc(OC)c(OC)c(OC)c1 (stereo partly shown) [dTAG-13]
- orthogonality: Fluc activation with cognate vs non-cognate protein partners [1]: only activated Fluc expression in the cells transfected with plasmids containing GAL4-FKBP12^F36V (SEQ ID NO: 1) and CRBN-VPR (SEQ ID NO: 2) coding regions
- gene activation from dual inducible cassettes [2]: single gene activation with one PROTAC small molecule and dual-gene activation using both PROTACs

SMILES: Cc1ncsc1-c1ccc(CNC(=O)[C@@H]2C[C@@H](O)CN2C(=O)[C@@H](NC(=O)COCCOCCOCCNC(=O)C[C@@H]2N=C(c3ccc(Cl)cc3)c3c(sc(C)c3C)-n3c(C)nnc32)C(C)(C)C)cc1 [MZ1]
- orthogonality: Fluc activation with cognate vs non-cognate protein partners [1]: interact with the same protein pairs
- gene activation from dual inducible cassettes [2]: single gene activation with one PROTAC small molecule and dual-gene activation using both PROTACs
